Converted amounts (≈) assume the structure as drawn.
What was measured:
Cryptococcus neoformans [1] = assay: Antifungal activity against Cryptococcus neoformans H99 ATCC 208821; Growth inhibition at 32 ug/mL in YNB media using NBS plates.; format: functional, ATCC 208821; H99 Type strain; settings: H99 Type strain, ASSAY_TEST Inhibition of Fungal Growth, CONC 32 ug.mL-1, detection method Resazurin, Absorption (OD600-OD570), plate type NBS, 384well, time 18 hr
Staphylococcus aureus [2] = assay: Antibacterial activity against Staphylococcus aureus MRSA ATCC 43300; Growth inhibition at 32 ug/mL in CAMBH media using NBS plates.; format: functional, ATCC 43300; MRSA; settings: ASSAY_TEST Inhibition of Bacterial Growth, CONC 32 ug.mL-1, detection method Absorption (OD600), MEDIA CAMHB, plate type NBS, 384well, time 18 hr
Acinetobacter baumannii [3] = assay: Antibacterial activity against Acinetobacter baumannii ATCC 19606; Growth inhibition at 32 ug/mL in CAMBH media using NBS plates.; format: functional, ATCC 19606; Type strain; settings: Type strain, ASSAY_TEST Inhibition of Bacterial Growth, CONC 32 ug.mL-1, detection method Absorption (OD600), MEDIA CAMHB, plate type NBS, 384well, time 18 hr
Klebsiella pneumoniae [4] = assay: Antibacterial activity against Klebsiella pneumoniae MDR ATCC 70063; Growth inhibition at 32 ug/mL in CAMBH media using NBS plates.; format: functional, ATCC 700603; MDR; settings: ATCC 700603, ASSAY_TEST Inhibition of Bacterial Growth, CONC 32 ug.mL-1, detection method Absorption (OD600), MEDIA CAMHB, plate type NBS, 384well, time 18 hr
Escherichia coli [5] = assay: Antibacterial activity against Escherichia coli ATCC 25922; Growth inhibition at 32 ug/mL in CAMBH media using NBS plates.; format: functional, ATCC 25922; Type strain; settings: Type strain, ASSAY_TEST Inhibition of Bacterial Growth, CONC 32 ug.mL-1, detection method Absorption (OD600), MEDIA CAMHB, plate type NBS, 384well, time 18 hr
Candida albicans [6] = assay: Antifungal activity against Candida albicans ATCC 90028; Growth inhibition at 32 ug/mL in YNB media using NBS plates.; format: functional, ATCC 90028; CLSI reference; settings: CLSI reference, ASSAY_TEST Inhibition of Fungal Growth, CONC 32 ug.mL-1, detection method Absorption (OD600), plate type NBS, 384well, time 18 hr
Pseudomonas aeruginosa [7] = assay: Antibacterial activity against Pseudomonas aeruginosa ATCC 27853; Growth inhibition at 32 ug/mL in CAMBH media using NBS plates.; format: functional, ATCC 27853; Type strain; settings: Type strain, ASSAY_TEST Inhibition of Bacterial Growth, CONC 32 ug.mL-1, detection method Absorption (OD600), MEDIA CAMHB, plate type NBS, 384well, time 18 hr
Candida albicans [8] = assay: Antifungal activity against Candida albicans ATCC 90028; MIC in YNB media using NBS plates.; format: functional, ATCC 90028; CLSI reference; settings: CLSI reference, ASSAY_TEST Inhibition of Fungal Growth, detection method Absorption (OD630), plate type NBS, 384well, time 18 hr
Klebsiella pneumoniae [9] = assay: Antibacterial activity against Klebsiella pneumoniae MDR ATCC 70063; MIC in CAMBH media using NBS plates.; format: functional, ATCC 700603; MDR; settings: ATCC 700603, ASSAY_TEST Inhibition of Bacterial Growth, detection method Absorption (OD600), MEDIA CAMHB, plate type NBS, 384well, time 18 hr
[10] = Cytotoxicity against HEK293 cells; CC50 by Resazurin assay in DMEM (10% FBS) media using TC plates; format: toxicity, cell-based, ATCC CRL1573; design: time 18 hr; settings: human
Pseudomonas aeruginosa [11] = assay: Antibacterial activity against Pseudomonas aeruginosa ATCC 27853; MIC in CAMBH media using NBS plates.; format: functional, ATCC 27853; Type strain; settings: Type strain, ASSAY_TEST Inhibition of Bacterial Growth, detection method Absorption (OD600), MEDIA CAMHB, plate type NBS, 384well, time 18 hr
Acinetobacter baumannii [12] = assay: Antibacterial activity against Acinetobacter baumannii ATCC 19606; MIC in CAMBH media using NBS plates.; format: functional, ATCC 19606; Type strain; settings: Type strain, ASSAY_TEST Inhibition of Bacterial Growth, detection method Absorption (OD600), MEDIA CAMHB, plate type NBS, 384well, time 18 hr
Staphylococcus aureus [13] = assay: Antibacterial activity against Staphylococcus aureus MRSA ATCC 43300; MIC in CAMBH media using NBS plates.; format: functional, ATCC 43300; MRSA; settings: ASSAY_TEST Inhibition of Bacterial Growth, detection method Absorption (OD600), MEDIA CAMHB, plate type NBS, 384well, time 18 hr
Cryptococcus neoformans [14] = assay: Antifungal activity against Cryptococcus neoformans H99 ATCC 208821; MIC in YNB media using NBS plates.; format: functional, ATCC 208821; H99 Type strain; settings: H99 Type strain, ASSAY_TEST Inhibition of Fungal Growth, detection method Resazurin, Absorption (OD600-OD570), plate type NBS, 384well, time 18 hr
Escherichia coli [15] = assay: Antibacterial activity against Escherichia coli ATCC 25922; MIC in CAMBH media using NBS plates.; format: functional, ATCC 25922; Type strain; settings: Type strain, ASSAY_TEST Inhibition of Bacterial Growth, detection method Absorption (OD600), MEDIA CAMHB, plate type NBS, 384well, time 18 hr

MIC (Candida albicans [8]) [µg/mL] | MIC (Klebsiella pneumoniae [9]) [µg/mL] | MIC (Pseudomonas aeruginosa [11]) [µg/mL] | MIC (Acinetobacter baumannii [12]) [µg/mL] | MIC (Staphylococcus aureus [13]) [µg/mL] | MIC (Cryptococcus neoformans [14]) [µg/mL] | MIC (Escherichia coli [15]) [µg/mL] | Compound | inhibition at 32 µg/mL (Cryptococcus neoformans [1]) [%] | inhibition at 32 µg/mL (Staphylococcus aureus [2]) [%] | inhibition at 32 µg/mL (Acinetobacter baumannii [3]) [%] | inhibition at 32 µg/mL (Klebsiella pneumoniae [4]) [%] | inhibition at 32 µg/mL (Escherichia coli [5]) [%] | inhibition at 32 µg/mL (Candida albicans [6]) [%] | inhibition at 32 µg/mL (Pseudomonas aeruginosa [7]) [%] | CC50 at 18 h [10] [µg/mL]
 |  |  |  |  |  |  | c1ccc(CN2CCC3(CC2)OCCc2ccsc23)cc1 | -4 | 17.1 | 9.8 | 8.6 | 17.1 | 3.6 | 11.9 | 
 |  |  |  |  |  |  | Cc1cc(C(=O)OCC(N)=O)c(C)n1-c1ccc(F)cc1 | -2.2 | 24.9 | 12.2 | 12.3 | 13.4 | 7.5 | 6 | 
 |  |  |  |  |  |  | c1cc2c(s1)CCOC21CCN(Cc2ccc3c(c2)OCCO3)CC1 | -5.8 | 17.4 | 10.2 | 19.3 | 16.1 | 1 | 8.6 | 
 |  |  |  |  |  |  | Clc1ccccc1-c1nnc2cncc(OCCc3ccccc3)n12 | -5.6 | 15.3 | 5.2 | 6.2 | 17.8 | 1.8 | 14.7 | 
 |  |  |  |  |  |  | Nc1ncnc2cc(-c3cccc(S(N)(=O)=O)c3)sc12 | -4.6 | 27.6 | 7.5 | 9.5 | 17.9 | 8.9 | 2.3 | 
 |  |  |  |  |  |  | COc1ccc(-n2c(C)cc(/C=C3\S/C(=N\c4ccccc4)NC3=O)c2C)cc1 | -4.3 | 10.6 | -2.8 | -1.1 | 2.8 | 7.8 | -4.2 | 
 |  |  |  |  |  |  | COc1cc2c(cc1OC)C1(CCN(Cc3ccccc3)CC1)OCC2 | -8.2 | 16.9 | 7.9 | 16.4 | 17.8 | 2.2 | 23.6 | 
 |  |  |  |  |  |  | O=C(Nc1cccc(Cl)c1)c1cncc2nnc(-c3ccc(OC(F)(F)F)cc3)n12 | -2.8 | 5.8 | -5.2 | 1.6 | 3.5 | 3.5 | 4 | 
 |  |  |  |  |  |  | COc1ccc(-n2c(C)cc(/C=C3\S/C(=N\c4cccc(O)c4)NC3=O)c2C)cc1 | -6.8 | 8.9 | -4.5 | -1.3 | 2.1 | 2.5 | -0.1 | 
 |  |  |  |  |  |  | O=C(Nc1cccc(Cl)c1F)c1cncc2nnc(-c3ccc(OC(F)F)cc3)n12 | -7.5 | 1.4 | -9.8 | -0.7 | -1.1 | 1.1 | 1 | 
> 32 | > 32 | > 32 | > 32 | > 32 | > 32 | > 32 | CCN1C(=O)c2cccc3c(-n4cc(CN5CCCNCCN(Cc6cn(-c7ccc8c9c(cccc79)C(=O)N(CC)C8=O)nn6)CCCNCC5)nn4)ccc(c23)C1=O.O=C(O)C(F)(F)F.O=C(O)C(F)(F)F | 1.4 | 54 | 31.4 | 17.2 | 20.4 | 5.2 | 15.2 | > 32
 |  |  |  |  |  |  | CC(C)C[C@H](NC(=O)[C@H](CCCCN)NC(=O)Cn1cc(CN2CCCNCCNCCCNCC2)nn1)C(=O)N[C@H](C(=O)N[C@@H](Cc1ccccc1)C(=O)N[C@@H](Cc1ccccc1)C(=O)O)C(C)C | -3.4 | 16.9 | 13.1 | 6 | 21.4 | 1.3 | 5 | 
 |  |  |  |  |  |  | O=C(CCCC[C@@H]1SC[C@@H]2NC(=O)N[C@@H]21)NCCCn1cc(CN2CCCNCCNCCCNCC2)nn1 | 41.9 | 19.4 | 23 | 12.5 | 15.2 | 2.8 | 10.9 | 
16 (≈ 45.6 µM) | > 32 | > 32 | > 32 | > 32 | > 32 | > 32 | Clc1ccc(-c2nnc3cncc(OCCc4ccccc4)n23)cc1 | -0.5 | 14.5 | 5.7 | 7.5 | 5.2 | 88.8 | 8.6 | > 32
 |  |  |  |  |  |  | Cc1cc(/C=C2\S/C(=N\c3ccccc3)NC2=O)c(C)n1-c1ccc(C(F)(F)F)cc1 | -1.7 | 17.9 | 9.1 | 6.7 | 6.8 | 9.8 | 7.3 | 
> 32 | > 32 | > 32 | > 32 | > 32 | > 32 | > 32 | COc1ccc(-n2c(C)cc(CN3CCC4(CC3)OCCc3sccc34)c2C)cc1 | -0.2 | 55 | 4.6 | 15.4 | 22.4 | 2.4 | 22.6 | > 32
 |  |  |  |  |  |  | Nc1ncnc2cc(-c3ccc(C(=O)N4CCOCC4)cc3)sc12 | -1.2 | 22.2 | 8.3 | 5.4 | 8.6 | 1 | 2.4 | 
 |  |  |  |  |  |  | c1ccc(CN2CCC3(CC2)OCCc2cc(-c4ccccc4)sc23)cc1 | -0.6 | 18.9 | 6.6 | 12.4 | 14.3 | 9.1 | -1.5 | 

Reference: ChEMBL document CHEMBL3832881, “CO-ADD antimicrobial screening data of OSM samples” (2017)
